US20250382270A1, “3-DIARYLMETHYLENES AND USES THEREOF” (Atux Iskay LLC, priority 2020, published 2025)

System: A172 glioblastoma cells
Experiment: A172 cell growth inhibition assay (CellTiter-Glo)
Type: cell-based
Settings: Homo sapiens, A 172, 48-72 hours treatment, CellTiter-Glo luminescence, test range 1-30 μM
Description: Compounds were also assayed in an A172 cell growth inhibition assay as follows. A172 glioblastoma cells were cultured in Dulbecco's modified Eagle's medium (DMEM) supplemented with 10% fetal bovine serum and 1% Penicillin-streptomycin. Incubation was performed at 37° C. and 5% CO2.
A172 cells were seeded at 3000-3500 cells/90 ul growth medium per well on 96-well tissue culture plates. Cells were incubated overnight to allow them to recover and reattach. Next day cells were treated with tested compounds and incubated for 48-72 hours.
Cell Proliferation assays in triplicate were performed at each concentration. Compounds test range was 1-30 μM (0, 5, 10, 15, 20, 25, and 30). The compounds were dissolved in DMSO. A series of dilutions were made in 1% DMSO in growth medium so that the final concentration of DMSO is 0.1% in all of treatments.
After treatment, cells were allowed to equilibrate at room temperature for ½ to one hour. Cell proliferation was measured by Luminescence quantification using Promega CellTiter-Glo Luminescent Cell Viability Assay. To perform the assay, 100 μl of Celltiter-Glo substrate was added to each well, plates were shake for 2 minutes and allowed to equilibrate for 10 minutes at room temperature. Luminescence intensity was measured using the Spectramax i3x plate reader.
The Luminescence intensity data were analyzed using the computer software Graphpad Prism. In the absence of the compound, the luminescence intensity (Lr) in each data set was defined as 100% cell viability. The percent cell in the presence of each compound was calculated according to the following equation: […], where L=the luminescence intensity in the presence of the compound.
The values of % cell versus a series of compound concentrations (0, 5, 10, 15, 20, 25, and 30 μM) were then plotted using nonlinear regression analysis of Sigmoidal dose-response curve. IC50 values were determined by the concentration causing a half-maximal percent activity.

Compound	IC50 [µM]
O=S(=O)(Nc1ccc(OC(F)(F)F)cc1)N1CCCC(C(c2ccc(F)cc2)c2ccc(F)cc2)C1 (centres unmarked) [Example 1a, 3-(bis(4-fluorophenyl)methyl)-N-(4-(trifluoromethoxy)phenyl)piperidine-1-sulfonamide]	12.1
O=S(=O)(Nc1ccccc1)N1CCCC(C(c2ccc(F)cc2)c2ccc(F)cc2)C1 (centres unmarked) [Example 2, 3-(bis(4-fluorophenyl)methyl)-N-phenylpiperidine-1-sulfonamide]	23
O=S(=O)(Nc1ccc(C(F)(F)F)cc1)N1CCCC(C(c2ccc(F)cc2)c2ccc(F)cc2)C1 (centres unmarked) [Example 4, 3-(bis(4-fluorophenyl)methyl)-N-(4-(trifluoromethyl)phenyl)piperidine-1-sulfonamide]	17.1
O=S(=O)(Nc1ccc(OC(F)(F)F)cc1)N1CCOC(C(c2ccc(F)cc2)c2ccc(F)cc2)C1 (centres unmarked) [Example 19, 2-(bis(4-fluorophenyl)methyl)-N-(4-(trifluoromethoxy)phenyl)morpholine-4-sulfonamide]	18.2
O=S(=O)(Nc1ccc(C(F)(F)F)cc1)N1CCOC(C(c2ccc(F)cc2)c2ccc(F)cc2)C1 (centres unmarked) [Example 22]	26
O=S(=O)(Nc1ccc(Cl)cc1)N1CCOC(C(c2ccc(F)cc2)c2ccc(F)cc2)C1 (centres unmarked) [Example 25]	19.4
O=S(=O)(Nc1cccc(Cl)c1)N1CCOC(C(c2ccc(F)cc2)c2ccc(F)cc2)C1 (centres unmarked) [Example 26]	28.2
O=S(=O)(Nc1ccc(OC(F)(F)F)cc1)N1CCCC(C2c3ccccc3CCc3ccccc32)C1 (centres unmarked) [Example 37]	11
O=S(=O)(Nc1ccc(C(F)(F)F)cc1)N1CCCC(C2c3ccccc3CCc3ccccc32)C1 (centres unmarked) [Example 40]	15.8
O=[N+]([O-])c1ccc(NS(=O)(=O)N2CCCC(C3c4ccccc4CCc4ccccc43)C2)cc1 (centres unmarked) [Example 42]	51
O=S(=O)(Nc1ccc(OC(F)(F)F)cc1)N1CCCC(C2c3ccc(F)cc3CCc3cc(F)ccc32)C1 (centres unmarked) [Example 71]	13
O=S(=O)(Nc1ccc(Cl)c(Cl)c1)N1CCOC(C(c2ccc(F)cc2)c2ccc(F)cc2)C1 (centres unmarked) [Example 93]	45
O=S(=O)(Nc1cc(Cl)cc(Cl)c1)N1CCOC(C(c2ccc(F)cc2)c2ccc(F)cc2)C1 (centres unmarked) [Example 94]	23.2

The remaining lines, values ahead:

IC50 [µM]	Compound
16.1	O=S(=O)(NCc1ccc(F)cc1)N1CCCC(C2c3ccccc3CCc3ccccc32)C1 (centres unmarked) [Example 96]
27.2	O=S(=O)(NCc1ccc(F)cc1)N1CCOC(C(c2ccc(F)cc2)c2ccc(F)cc2)C1 (centres unmarked) [Example 97]
10.4	O=S(=O)(NCc1ccc(C(F)(F)F)cc1)N1CCCC(C2c3ccccc3CCc3ccccc32)C1 (centres unmarked) [Example 98]
25.3	O=S(=O)(Nc1ncc(C(F)(F)F)cn1)N1CCCC(C2c3ccccc3CCc3ccccc32)C1 (centres unmarked) [Example 99]
16.2	O=S(=O)(Nc1ccc(Cl)c(Cl)c1)N1CCCC(C(c2ccc(F)cc2)c2ccc(F)cc2)C1 (centres unmarked) [Example 100]
22.1	O=S(=O)(Nc1cccc(C(F)(F)F)c1)N1CCCC(C(c2ccc(F)cc2)c2ccc(F)cc2)C1 (centres unmarked) [Example 101]
20.6	O=S(=O)(Nc1cccc(C(F)(F)F)c1)N1CCOC(C(c2ccc(F)cc2)c2ccc(F)cc2)C1 (centres unmarked) [Example 102]
10.3	CC(C)(C)OC(=O)Nc1ccc(NS(=O)(=O)N2CCCC(C(c3ccc(F)cc3)c3ccc(F)cc3)C2)cc1 (centres unmarked) [Example 103]
14.8	O=S(=O)(Nc1ccc(OC(F)(F)F)cc1)N1CCCC(=C(c2ccc(F)cc2)c2ccc(F)cc2)C1 [Example 104]
20.3	O=S(=O)(Nc1ccc(OC(F)(F)F)cc1)N1CCCC(=C(c2ccccc2)c2ccccc2)C1 [Example 105]
12.8	O=S(=O)(Nc1ccc2c(c1)OC(F)(F)O2)N1CCCC(C2c3ccccc3CCc3ccccc32)C1 (centres unmarked) [Example 106]
16.1	O=S(=O)(Nc1ccc(Cl)cc1)N1CCCC(=C(c2ccc(F)cc2)c2ccc(F)cc2)C1 [Example 108]
19.2	O=S(=O)(Nc1ccc(C(F)(F)F)cc1)N1CCCC(=C(c2ccc(F)cc2)c2ccc(F)cc2)C1 [Example 109]
25	O=S(=O)(Nc1ccccc1)N1CCCC(=C(c2ccc(F)cc2)c2ccc(F)cc2)C1 [Example 110]
30	O=S(=O)(Nc1cccc(C(F)(F)F)c1)N1CCCC(=C(c2ccc(F)cc2)c2ccc(F)cc2)C1 [Example 111]
24	O=S(=O)(Nc1cccc(OC(F)(F)F)c1)N1CCCC(=C(c2ccc(F)cc2)c2ccc(F)cc2)C1 [Example 112]
10.8	O=S(=O)(Nc1cccc(OC(F)(F)F)c1)N1CCCC(C2c3ccccc3CCc3ccccc32)C1 (centres unmarked) [Example 113]

System: A549 cells
Experiment: A549 cell growth inhibition assay (alamarBlue)
Type: cell-based
Settings: Homo sapiens, 72 hours treatment, alamarBlue fluorescence
Description: Example compounds 1a, 2, 4 and 6 were assayed in an A549 cell growth inhibition assay as follows. A549 cells were cultured in DMEM medium with supplement of 10% FBS and 1% Pen-strep. Assay conditions: to perform the proliferation assay, A549 cells were seeded at 5000 cells/90 μl growth medium/well on 96-well black clear-bottom tissue culture plate. Cells were incubated at 37° C. and 5% CO2 overnight to allow them to recover and reattach. Next day cells were treated with tested compounds for 72 hours. After treatment, cell proliferation was measured by Fluorescent quantitation of alamarBlue reagent. The alamarBlue assay incorporates a fluorometric/colorimetric growth indicator based on detection of metabolic activity. Specifically, resazurin, the active ingredient of alamarBlue reagent, is blue in color and virtually non-fluorescent. Upon entering cells, resazurin is reduced to resorufin, a compound that is red in color and highly fluorescent. Continued cell growth maintains a reduced environment, therefore increasing the overall fluorescence and color of the media surrounding cells. Our experiment has shown that the fluorescence intensity of alamarBlue reagent was directly proportional to cell number. To perform the alamarBlue assay, 10 μl of alamarBlue reagent was added to each well and the plate was incubated at 37° C. for an additional 1-4 hours. Fluorescence intensity was measured at an excitation of 530 nm and an emission of 590 nm using a BioTek Synergy™ 2 microplate reader.
Data analysis. Cell proliferation assays in triplicate were performed at each concentration. The fluorescent intensity data were analyzed using the computer software, Graphpad Prism. In the absence of the compound, the fluorescent intensity (Ft) in each data set was defined as 100%. In the absence of cells, the fluorescent intensity (Fb) in each data set was defined as 0%. The percent cell in the presence of each compound was calculated according to the following equation: % cell=(F-Fb)/(Ft-Fb), where F=the fluorescent intensity in the presence of the compound, Fb=the fluorescent intensity in the absence of cells, and Ft=the fluorescent intensity in the absence of the compound. The values of % cell versus a series of compound concentrations were then plotted using non-linear regression analysis of Sigmoidal dose-response curve generated with the equation Y=B+(T-B)/1+10^((LogEC50-X)×Hill Slope), where Y=percent cell, B=minimum percent cell, T=maximum percent cell, X=logarithm of compound and Hill Slope=slope factor or Hill coefficient. The IC50 value was determined by the concentration causing a half-maximal percent activity.

IC50 [µM]	Compound
0.34	COc1cccc2c1C(=O)c1c(O)c3c(c(O)c1C2=O)C[C@@](O)(C(=O)CO)C[C@@H]3O[C@H]1C[C@H](N)[C@H](O)[C@H](C)O1 [Doxorubicin, reference compound]
8.27	O=S(=O)(Nc1ccc(OC(F)(F)F)cc1)N1CCCC(C(c2ccc(F)cc2)c2ccc(F)cc2)C1 (centres unmarked) [Example 1a, 3-(bis(4-fluorophenyl)methyl)-N-(4-(trifluoromethoxy)phenyl)piperidine-1-sulfonamide]
22.9	O=S(=O)(Nc1ccccc1)N1CCCC(C(c2ccc(F)cc2)c2ccc(F)cc2)C1 (centres unmarked) [Example 2, 3-(bis(4-fluorophenyl)methyl)-N-phenylpiperidine-1-sulfonamide]
9.61	O=S(=O)(Nc1ccc(C(F)(F)F)cc1)N1CCCC(C(c2ccc(F)cc2)c2ccc(F)cc2)C1 (centres unmarked) [Example 4, 3-(bis(4-fluorophenyl)methyl)-N-(4-(trifluoromethyl)phenyl)piperidine-1-sulfonamide]
12.8	O=S(=O)(Nc1ccc(Cl)cc1)N1CCCC(C(c2ccc(F)cc2)c2ccc(F)cc2)C1 (centres unmarked) [Example 6, 3-(bis(4-fluorophenyl)methyl)-N-(4-chlorophenyl)piperidine-1-sulfonamide]
